According to US20090156609A1, “TREATMENT OF POST-TRAUMATIC STRESS DISORDER WITH TETRAHYDROINDOLONE ARYLPIPERZAINE COMPOUNDS” (priority 2007, published 2009):
Where two headings read alike, the source gives them in different places.

Key:
mice = test: Spontaneous Activity model (locomotor activity); format: in vivo
Excerpt: Ambulatory and non-ambulatory activity can be used to test spontaneous and drug-induced motor activity. The test can be used to profile the potential for a drug to induce hyperactivity or sedation.
In this model, Kinder Scientific photobeam activity monitors are used to record the ambulatory and non-ambulatory motor activity. The monitors track the photobeam breaks made by the animal that are used to calculate the number of ambulatory and fine (non-ambulatory) motor movements. A drug-induced increase in activity can indicate the potential for an adverse event such as hyperactivity. A drug-induced decrease in response can indicate the potential for an adverse event such as sedation. Doses at which no significant change in activity are recorded, and more preferably at which no change in activity are recorded, can be selected for further evaluation.
(§1) The present compounds were tested in the conditioned avoidance response (CAR) model and in the Spontaneous Activity model described above.

[1] = Neuromuscular coordination (rotarod); set-up: species or system mice; details: male, Swiss Webster (CFW), mouse, in vivo, sc; subcutaneous administration, tested 30 minutes after dosing; read-out: ED50 (ability to remain on the rotarod)
Protocol: This model can be used to determine the dose of a compound or composition at which unwanted side effects (muscle tone/motor coordination deficits) occur. Animals (C57 Mice) are placed on a rotarod treadmill (model V EE/85, Columbus Instruments, Columbus, Ohio) accelerating from 1 to 80 revolutions/4 minutes. All mice are given two control trials at least 12 hours before oral administration evaluation of compounds. Mice are tested on the rotarod 30 minutes after administration of compounds. The number of seconds each mouse remained on the rotarod is recorded.
Doses at which the coordination of an animal is decreased or at which its motor function is altered, such that the ability of the animal to remain on the rotarod is reduced, are determined. Doses below this are selected for further evaluation.
Male Swiss Webster (CFW) mice were placed on a rotarod (model V EE/85, Columbus Instruments, Columbus, Ohio) accelerating from 1 to 80 revolutions/4 minutes. All mice were given two control trials at least 12 hours before administration of the present compounds for evaluation. Mice were tested on the rotarod 30 minutes after subcutaneous administration of compounds. The number of seconds each mouse remained on the rotarod was recorded. Compounds that decreased coordination or altered motor function reduced the ability of the animal to remain on the rotarod.

Male C57 mice = test: PCP-induced disruption of prepulse inhibition (PPI) of the startle response; format: in vivo; details: for minimal effective dose: Mus musculus, 20 minutes prior to PCP 5 mg/kg IP, read-out: Effective Dose, Prepulse Inhibition Testing
Excerpt: The phencyclidine (PCP)-induced disruption of pre-pulse inhibition (PPI) has been used to predict efficacy in cognitive impairment and other disorders. In this test, a weaker auditory prestimulus (prepulse) inhibits the reaction of an test organism to a subsequent strong startle stimulus (pulse). Normal PPI functioning in mammals is critical in filtering out irrelevant sensory information, an inhibitory process that is affected in patients with PTSD. A reduction of the cognitive/attention impairment produced in the PPI model can be used as an efficacy measure for compound candidate selection.
For testing of PPI, male C57 mice can be assigned to five dose groups of eight animals per group, and vehicle or test compound can then be administered orally (PO) or subcutaneously (SC) 20 minutes prior to intraperitoneal (IP) administration of vehicle or PCP (5 mg/kg). Ten minutes following PCP administration, the mice are placed into Hamilton-Kinder startle chambers and evaluation of pre-pulse inhibition procedure is performed. Following a five-minute acclimatization period with background white noise (65 decibels), mice were exposed to five different trial types. Trials were presented […] in a quasi-random order, with randomized 5 to 25 second inter-trial intervals. Trials were: stimulus only trial (120 decibel white noise, 50 ms stimulus); two different prepulse+pulse trials in which a 20 ms 5 decibel, or 10 decibel stimuli above a 65 decibel background preceded the 120 decibel pulse by 120 ms; a 10 decibel prepulse without a 120 decibel pulse; and a no stimulus trial, in which only the background noise was presented.
Compounds which are observed to reduce and/or reverse PCP-induced impairment can be selected as candidates for further evaluation. Such reduction is also indicative of memory enhancement, which is also a positive indicator for further development.
Male C57 mice were assigned to five dose groups of eight animals per group, and vehicle or a test compound was administered orally or subcutaneously 20 minutes prior to intraperitoneal administration of vehicle or PCP (5 mg/kg). Ten minutes following PCP administration, the mice were placed into Kinder Scientific startle chambers (Kinder Scientific, Poway, Calif.) and pre-pulse inhibition was evaluated. Following a five-minute acclimatization period with background white noise (65 dB), mice were exposed to five different trial types. Trials were presented in a quasi-random order, with randomized 5 to 25 second inter-trial intervals. The five different trials (presented 10 times each were): stimulus only trial (120 dB white noise, 50 ms stimulus); two different prepulse+pulse trials in which a 20 ms 5 dB or 10 dB stimulus above a 65 dB background preceded the 120 dB pulse by 120 ms; a 10 dB prepulse without a 120 dB pulse; and a no stimulus trial, in which only the background noise was presented.

C57/BL6 male mice = test: Contextual fear conditioning in an open field model; format: in vivo; details: 3.0 mg/kg subcutaneously for 10 consecutive days, tested day 16 after 5 day wash out
Protocol: Response to the development of contextual fear conditioning in an open field model, a model for PTSD, was evaluated in C57/BL6 male mice using the Kinder Scientific MotorMonitor System (Version 3.11, Kinder Scientific, Poway, Calif.). On Day 1 (Trauma Induction Day), animals were pretreated with compound 30 minutes prior to trauma induction and placed in a cage with a shock-grid floor. Locomotor activity was evaluated by an automated open field system with infrared photo-beams. The mice were placed in the center of the cage and the following variables of motor activity were recorded: locomotor activity, fine movement, and rearing. Animals were placed in the chamber for a total of 300 seconds. After 230 seconds, a 10 second, 2.0 mA electric footshock was administered. Mice remained in the chamber for an additional minute. Mice were then injected subcutaneously for 10 consecutive days (starting 24 hours post trauma induction) with either Compound A (3.0 mg/kg) or vehicle. On day 16, following a 5 day wash out period, mice were exposed to the traumatic environment without shock for 5 minutes. Total ambulatory activity was compared between Day 1 and Day 16.

C-57 mice = test: Conditioned avoidance response (CAR) model; format: in vivo
Excerpt: The Condition Avoidance Responding (CAR, active avoidance) model is a measure of cognitive and attention impairment. It evaluates the disruption of avoidance (increased latency) without disruption of escape (extrapyramidal motor function).
The training of C-57 mice consists of 20 trials with variable inter-trial intervals (trained to 80% Avoidance Criteria). After a one-minute acclimation period, the house light and an acoustic 90 decibel tone (conditioned stimuli) are presented. A response (crossing to dark compartment) within 5 seconds ends the trial and trial is recorded as avoidance response (CAR). […] To avoid shock, animals learn to move from the lighted side of the − chamber to the dark side when the cue is presented (avoidance) or moved when the shock is administered (escape). Compounds that disrupt cognition in the CAR model can be excluded from candidate consideration.
as §1

[2] = subcutaneous, doses of up to 10 mg/kg

## O=C1CCCc2c1ccn2CCN1CCN(c2cccc(Cl)c2)CC1 [Compound A, 1-{2-[4-(3-Chlorophenyl)piperazin-1-yl]ethyl}-1,5,6,7-tetrahydroindol-4-one]
mice; models unwanted side effects
  minimum effective dose, Locomotor Activity: >10 mg/kg
mice; [2]
  effect in the Spontaneous Activity model compared to vehicle treated mice: did not produce any effect
[1]
  ED50 at 30 min: 23 mg/kg
Male C57 mice; sc, subcutaneous
  minimal effective dose: 3 mg/kg
Male C57 mice; oral
  minimal effective dose: 1 mg/kg
Male C57 mice; doses of 10 mg/kg, PCP-induced disruption
  prepulse inhibition versus control levels (FIG. 1): inhibition was returned to control levels
Male C57 mice; reversal of PCP-induced disruption, route not given
  minimum effective dose, Prepulse Inhibition (PPI): 3 mg/kg
C57/BL6 male mice
  suppressed basic movements compared to vehicle treated animals (FIG. 2): displayed a reduction in suppressed basic movements
C-57 mice; models unwanted side effects
  minimum effective dose, Conditioned Avoidance Response: >10 mg/kg
C-57 mice; [2]
  effect in the CAR model compared to vehicle treated mice: did not produce any effect
